Results published in patent publication US9415011B1, “Method for treatment of liver cancer and inhibition of metastasis with CXC-chemokine-receptor 4-targeted nanoparticle” (National Tsing Hua University, priority 2015, dated 2016).

Assays:
HCA-1 cells [1] = assay: In vitro cytotoxicity, MTT assay; format: cell-based, murine; conditions: HCA-1, 48 hours, sorafenib 0.25 μM, AMD3100 0.2 μM
Experimental: (§1) For cytotoxicity examination of the CXCR4-targeted lipid-coated PLGA nanoparticle of the present invention, HCA-1 or JHH-7 cells were seeded in 96-well transparent plates (Costar, Ill., USA) at a density of 1000 cells/well in a medium and were incubated for 12 hours. After confluency reached 10%, the medium was replaced with RPMI-1640 media containing DOPSor, ADOPSor, free DOPA, ADOP, or DOPSor with free AMD3100 at the equivalent sorafenib concentration of 0.25 μM. […] All cells were incubated for 48 hours. After incubation for another 3 hours, MTT assay was utilized to subsequently measure the cell viability. The absorbance of the wells was measured by Multiskan (Thermo, USA) at 570 nm and background absorbance was subtracted from all data. The percentage of cell viability was calculated by normalization of all values to the control group.

JHH-7 cells [2] = assay: In vitro cytotoxicity, MTT assay; format: cell-based, human; conditions: JHH-7, 48 hours, sorafenib 0.25 μM, AMD3100 0.2 μM
Experimental: as §1

[3] = In vivo pharmacokinetics of C6 in blood; set-up: species or system C3H mice; conditions: 2 mg/kg, mice with orthotopic HCA-1 tumor
Experimental: To examine the pharmacokinetics profile in vivo, firstly, C6-loaded lipid-coated PLGA nanoparticle without AMD3100 modification (DOP-C6) and C6-loaded AMD3100-modified lipid-coated PLGA nanoparticle (ADOP-C6) were prepared according to the method set forth above. Then, C3H mice with orthotopic HCA-1 tumor were administered with free C6, DOP-C6 and ADOP-C6 at a dosage of 2 mg/kg. 40 μl of blood was collected from the tail artery and mixed with 10 μL of EDTA (50 mM) at different periods of time. The fluorescence intensity was measured by the plate reader (Fluoroskan Ascent FL, Thermo Scientific) at an excitation wavelength of 485 nm and an emission wavelength of 538 nm C6 concentration was normalized and calculated from a standard curve obtained by spiking known amounts of free C6 or C6-loaded nanoparticles in blood obtained from uninjected mice.

orthotopic HCA-1 tumor [4] = assay: Syngeneic orthotopic murine HCC model, sorafenib and AMD3100-modified nanoparticle; format: in vivo, C3H mice; conditions: sorafenib 50 mg/kg daily for 14 days
From the text: 4 to 6-week-old male C3H/HeNCrNarl mice (weight: 25 g) were purchased from National Laboratory Animal Center (Taipei, Taiwan). In order to create hepatocellular carcinoma model, every mouse was orthotopically injected with HCA-1 cells (10^6 cells per mouse) in liver.
On the other hand, HCA-1 cells were intrahepatic ally implanted into C3H mice to establish a syngeneic orthotopic murine HCC model. For evaluation of mean vessel density (MVD) and hypoxic induction, mice without any treatment were defined as Negative control group, while mice treated with free sorafenib alone were defined as Positive control group. Mice treated with free sorafenib and free AMD3100 were defined as Comparative. For the experimental groups, mice treated with AMD3100-modified lipid-coated nanoparticle of the present invention were defined as Experimental group 1, while mice treated with sorafenib and AMD3100-modified lipid-coated nanoparticle of the present invention together were defined as Experimental group 2.
After HCC tumors were established, mice were treated according to the above mentioned Positive control group, Comparative group, Experimental group 1, and Experimental group 2 with sorafenib given at a dose of 50 mg/kg daily for 14 days. […] On the other hand, the change in SDF1α expression as a consequence of treatment-induced hypoxia was examined.

JHH-7 cells [5] = assay: Cell viability under sorafenib with recombinant SDF1α; format: cell-based, human; conditions: JHH-7, in the presence of sorafenib
From the text: (§2) To examine cell viability, cells without any treatment were defined as Negative control group, while cells treated with free sorafenib alone were defined as Positive control group. Meanwhile, cells treated with sorafenib in the presence of recombinant SDF1α were defined as Comparative group 1, while cells treated with free sorafenib and free AMD3100 were defined as Comparative group 2. Regarding the experimental groups, cells treated with sorafenib-loaded lipid-coated nanoparticle without AMD3100 modification were defined as Experimental group 1, while cells treated with sorafenib-loaded AMD3100-modified lipid-coated nanoparticle were defined as Experimental group 2.
(§3) To determine whether the SDF1α/CXCR4 axis mediates HCC resistance to sorafenib treatment, both murine HCC (HCA-1) and human HCC (JHH-7) cell lines were firstly exposed to recombinant SDF1α in the presence of sorafenib.

HCA-1 cells [6] = assay: as above; format: cell-based, murine; conditions: HCA-1, in the presence of sorafenib
From the text: as §2, §3

VEGF [7] = assay: VEGF expression by western blot; format: cell-based, human; conditions: JHH-7
From the text: (§4) Firstly, cells treated with free control siRNA were defined as Control group, while cells treated with free anti-VEGF siRNA were defined as Comparative group. Cells treated with anti-VEGF siRNA-loaded lipid-coated nanoparticle without AMD3100 modification were defined as Experimental group 1, while cells treated with anti-VEGF siRNA-loaded AMD3100-modified lipid-coated nanoparticle were defined as Experimental group 2.

VEGF [8] = assay: VEGF expression by western blot; format: cell-based, murine; conditions: HCA-1
From the text: as §4

orthotopic HCA-1 tumor [9] = assay: In vivo tumor uptake of fluorescence-labeled siRNA; set-up: species or system mice; conditions: intravenous injection, after 4 hours
Experimental: Next, the uptake of the fluorescence-labeled siRNA in orthotopic HCA-1 tumor models via intravenous injection was evaluated after 4 hours.

For `c1cc(CN2CCCNCCNCCCNCC2)ccc1CN1CCCNCCNCCCNCC1` [AMD3100], the “cytotoxicity / cell viability” value (HCA-1 cells [1]) was “did not have a cytotoxic effect” and the “cytotoxicity / cell viability” value (JHH-7 cells [2]) was “did not have a cytotoxic effect”.
With `CCN(CC)c1ccc2cc(-c3nc4ccccc4s3)c(=O)oc2c1` [free C6, coumarin 6] the “C6 in blood after 1 hour” value [3] was “cleared rapidly from the blood after 1 hour” and the “C6 in blood after 4 hours” value [3] was “almost cleared out after 4 hours”.
With `CNC(=O)c1cc(Oc2ccc(NC(=O)Nc3ccc(Cl)c(C(F)(F)F)c3)cc2)ccn1` [sorafenib, Sorafenib] the “carbonic anhydrase IX (CAIX) expression (hypoxia)” value (orthotopic HCA-1 tumor [4]) was “increase of carbonic anhydrase IX (CAIX) expression”, the “increase in SDF1α expression in HCA-1 tumor tissues” value (orthotopic HCA-1 tumor [4]) was 3 fold and the “increase in number of F4/80+ macrophages” value (orthotopic HCA-1 tumor [4]) was “over 3 fold”. The lung metastasis (orthotopic HCA-1 tumor [4]) was “Neither the Positive control group nor the Comparative group showed a reduction in metastasis formation”, the “mean vessel density (MVD)” value (orthotopic HCA-1 tumor [4]) was “significant reduction of MVD” and the tumor growth (orthotopic HCA-1 tumor [4]) was “moderate tumor growth inhibitory effect”.
For SDF1α, the cell viability (JHH-7 cells [5]) was “increased the viability” and the cell viability (HCA-1 cells [6]) was “increased the viability”.
In the case of “free anti-VEGF siRNA: anti-VEGF siRNA with sequence 5′-AUGUGAAUGCAGACCAAAGAA-3′ (chemistry not given here)”, the VEGF expression (VEGF [7]) is reported as “no suppression of VEGF expression”, the VEGF expression (VEGF [8]) is reported as “no suppression of VEGF expression” and the “uptake of fluorescence-labeled siRNA in orthotopic HCA-1 tumor” value (orthotopic HCA-1 tumor [9]) is reported as “intracellular uptake can hardly be detected”.
